Results published in patent US12064437B2, “Methods for treating systemic lupus erythematosus and the use of biomarkers as a predictor of clinical sensitivity to therapies” (CELGENE CORPORATION, priority 2020, dated 2024).

Test system: subjects with active autoantibody-positive SLE
Assay: Phase 2b study in SLE: Lupus Low Disease Activity State (LLDAS) response
Type: in vivo, human
Conditions: for percentages of LLDAS responders: Week 24; for LLDAS response at Week 24, stratified difference from placebo / percentage of subjects who achieved LLDAS response at Week 24: overall subjects; for percentage of subjects who achieved LLDAS response at Week 24: NRI, ITT
Experimental: The pharmacokinetics, pharmacodynamics (PD), efficacy, and safety of oral iberdomide ((S)-3-[4-({4-[(morpholin-4-yl)methyl]phenyl}methoxy)-1-oxo-1,3-dihydro-2H-isoindol-2-yl]piperidine-2,6-dione-hydrogen chloride (1/1)) were evaluated in a phase 2b study in subjects with active autoantibody-positive SLE.
Adult SLE patients (N=288) with a ≥6-month history of SLE and SLE Disease Activity Index (SLEDAI 2K) ≥6 were randomized to placebo (n=83) or iberdomide 0.15 mg QD (n=42), 0.3 mg QD (n=82), or 0.45 mg QD (n=81). Clinical response was determined by the SLE Responder Index 4 (SRI-4) at week 24 for all patients and within pre-specified biomarker-enriched subsets based on expression of Ikaros, Aiolos, the Type 1 IFN signature (IFI27, IFI44, IFI44L, RSAD2), and other gene modules measured from fingerstick blood collected at baseline (Modular Immune Profile Test, DxTerity Diagnostics, Inc.). The primary objective of the study was to evaluate the clinical efficacy of 3 doses of iberdomide (0.45 mg once per day [QD], 0.30 mg QD, or 0.15 mg QD) compared to placebo, for the treatment of active SLE using the SLE Responder Index at Week 24.
The percentages of LLDAS responders for key mRNA and DNA subgroups were as follows: • IKZF1 high: 23.4%, 17.0%, and 14.3% for 0.45 mg, 0.30 mg, and 0.15 mg QD iberdomide, respectively, compared with 12.5% for placebo. • IKZF3 high: 27.8%, 9.4%, 14.3%, respectively, compared with 11.1% for placebo. • Type 1 IFN module high: 17.5%, 14.3%, and 24.0%, respectively, compared with 8.3% for placebo. • Ikaros IFN module high: 16.1%, 14.3%, and 20.0%, respectively, compared with 8.2% for placebo. Drug Dose, Drug Concentration, and Relationship to Response

O=C1CC[C@H](N2Cc3c(OCc4ccc(CN5CCOCC5)cc4)cccc3C2=O)C(=O)N1 [iberdomide, (S)-3-[4-({4-[(morpholin-4-yl)methyl]phenyl}methoxy)-1-oxo-1,3-dihydro-2H-isoindol-2-yl]piperidine-2,6-dione-hydrogen chloride (1/1)]
percentages of LLDAS responders (IKZF1 high, 0.15 mg QD): 14.3%
percentages of LLDAS responders (IKZF1 high, 0.30 mg QD): 17.0%
percentages of LLDAS responders (IKZF1 high, 0.45 mg QD): 23.4%
percentages of LLDAS responders (IKZF3 high, 0.15 mg QD): 14.3%
percentages of LLDAS responders (IKZF3 high, 0.30 mg QD): 9.4%
percentages of LLDAS responders (IKZF3 high, 0.45 mg QD): 27.8%
percentages of LLDAS responders (Ikaros IFN module high, 0.15 mg QD): 20.0%
percentages of LLDAS responders (Ikaros IFN module high, 0.30 mg QD): 14.3%
percentages of LLDAS responders (Ikaros IFN module high, 0.45 mg QD): 16.1%
percentages of LLDAS responders (Type 1 IFN module high, 0.15 mg QD): 24.0%
percentages of LLDAS responders (Type 1 IFN module high, 0.30 mg QD): 14.3%
percentages of LLDAS responders (Type 1 IFN module high, 0.45 mg QD): 17.5%
LLDAS response at Week 24, stratified difference from placebo (0.15 mg QD): 6.7%
percentage of subjects who achieved LLDAS response at Week 24 (0.15 mg QD): 19.0%
percentage of subjects who achieved LLDAS response at Week 24 (0.30 mg QD): 17.1%
LLDAS response at Week 24, stratified difference from placebo (0.45 mg QD): 6.9%
percentage of subjects who achieved LLDAS response at Week 24 (0.45 mg QD): 19.8%
